Experimental data from patent US6362183B1, “Aromatic sulfonyl alpha-hydroxy hydroxamic acid compounds” (G. D. Searle & Company, priority 1997, dated 2002).

How the values were obtained:
Experiment in all cases: In vitro metalloprotease inhibition, fluorogenic peptide assay
Assay type in all cases: biochemical
MMP-2 = target: T1, MMP-2 (Homo sapiens, UniProt P08253); settings: for IC50: MCA peptide substrate 4 μM, room temperature, pH 7.5
T1 sequence (P08253 110-660): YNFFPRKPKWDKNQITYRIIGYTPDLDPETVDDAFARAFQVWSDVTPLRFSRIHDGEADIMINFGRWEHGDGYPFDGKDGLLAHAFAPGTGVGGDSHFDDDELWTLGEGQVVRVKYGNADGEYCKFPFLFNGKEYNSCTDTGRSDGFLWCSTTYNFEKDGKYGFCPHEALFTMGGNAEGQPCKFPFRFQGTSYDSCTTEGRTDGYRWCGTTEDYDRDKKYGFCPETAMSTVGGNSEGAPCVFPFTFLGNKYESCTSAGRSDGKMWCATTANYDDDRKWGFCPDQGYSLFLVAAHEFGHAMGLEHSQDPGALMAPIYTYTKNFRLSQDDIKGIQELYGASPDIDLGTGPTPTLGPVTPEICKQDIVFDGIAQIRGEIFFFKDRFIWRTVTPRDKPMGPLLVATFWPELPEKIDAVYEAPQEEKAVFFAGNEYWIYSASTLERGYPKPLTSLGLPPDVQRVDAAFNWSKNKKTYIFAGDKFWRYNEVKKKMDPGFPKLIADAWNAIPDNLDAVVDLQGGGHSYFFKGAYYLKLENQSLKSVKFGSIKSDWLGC
Experimental: (§1) Briefly, 4-aminophenylmercuric acetate (APMA) or trypsin activated MMPs were incubated with various concentrations of the inhibitor compound at room temperature for 5 minutes.
(§2) MCA-ProLeuGlyLeuDpaAlaArgNH^2, wherein MCA is methoxycoumarin and Dpa is 3-(2,4-dinitrophenyl)-L-2,3-diaminopropionyl alanine.
(§3) The buffer used for assays contained 100 mM Tris-HCl, 100 mM NaCl, 10 mM CaCl2 and 0.05 percent polyethyleneglycol (23) lauryl ether at a pH value of 7.5.

recombinant human MMP-13 = target: T2, recombinant human MMP-13 (Homo sapiens, UniProt P45452); settings: for IC50: APMA-activated enzyme, MCA peptide substrate 4 μM, room temperature, pH 7.5; for inhibitory activity against MMP-13 (in words): discussion of Table 51
T2 construct: made in house
Experimental: as §1
(§4) More specifically, recombinant human MMP-13 and MMP-1 enzymes were prepared in laboratories of the assignee. MMP-13 was expressed in baculovirus as a proenzyme, and purified first over a heparin agarose column and then over a chelating zinc chloride column. The proenzyme was activated by APMA for use in the assay. MMP-1 expressed in transfected HT-1080 cells was provided by Dr. Howard Welgus of Washington University, St. Louis, Mo. The enzyme was also activated using APMA and was then purified over a hydroxamic acid column.
as §2, §3

recombinant human MMP-1 = target: T3, recombinant human MMP-1 (Homo sapiens, UniProt P03956); settings: for IC50: APMA-activated enzyme, MCA peptide substrate 4 μM, room temperature, pH 7.5; for inhibitory activity against MMP-1 (in words): discussion of Table 51
T3 construct: made in house; host or cells: transfected HT-1080 cells
T3 sequence (P03956 100-469): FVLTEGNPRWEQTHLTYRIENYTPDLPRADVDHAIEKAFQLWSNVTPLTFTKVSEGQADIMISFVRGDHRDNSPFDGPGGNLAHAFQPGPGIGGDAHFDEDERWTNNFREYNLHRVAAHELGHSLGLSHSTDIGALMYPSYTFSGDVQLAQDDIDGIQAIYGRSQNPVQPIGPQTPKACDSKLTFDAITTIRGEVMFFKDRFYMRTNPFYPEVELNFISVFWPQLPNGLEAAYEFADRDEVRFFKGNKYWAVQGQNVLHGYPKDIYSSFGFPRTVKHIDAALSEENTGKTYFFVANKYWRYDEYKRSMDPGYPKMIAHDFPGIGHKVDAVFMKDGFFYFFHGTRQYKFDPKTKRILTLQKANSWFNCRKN
Experimental: as §1, §4, §2, §3

MMP-9 = MMP-9 (Homo sapiens, UniProt P14780); settings: MCA peptide substrate 4 μM, room temperature, pH 7.5
Chain of MMP-9 (P14780 107-707 limits assumed, species assumed): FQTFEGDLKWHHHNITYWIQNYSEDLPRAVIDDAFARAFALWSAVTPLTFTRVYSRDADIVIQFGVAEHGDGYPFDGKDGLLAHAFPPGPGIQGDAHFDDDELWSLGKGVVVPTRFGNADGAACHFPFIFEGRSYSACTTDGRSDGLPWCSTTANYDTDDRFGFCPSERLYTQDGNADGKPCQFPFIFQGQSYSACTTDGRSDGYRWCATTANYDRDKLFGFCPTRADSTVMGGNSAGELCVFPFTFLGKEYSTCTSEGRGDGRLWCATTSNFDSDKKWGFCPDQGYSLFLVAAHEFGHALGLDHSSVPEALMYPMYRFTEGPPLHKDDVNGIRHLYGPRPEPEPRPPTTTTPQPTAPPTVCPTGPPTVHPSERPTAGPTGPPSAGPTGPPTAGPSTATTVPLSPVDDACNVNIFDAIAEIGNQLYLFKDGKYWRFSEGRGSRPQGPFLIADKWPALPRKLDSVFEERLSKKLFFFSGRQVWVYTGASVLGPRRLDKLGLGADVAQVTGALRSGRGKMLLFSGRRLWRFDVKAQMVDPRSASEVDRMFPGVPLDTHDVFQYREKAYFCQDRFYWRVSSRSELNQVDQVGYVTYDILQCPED
Experimental: as §1, §2, §3

IC50 (MMP-2) [µM] | IC50 (recombinant human MMP-13) [µM] | IC50 (recombinant human MMP-1) [µM] | IC50 (MMP-9) [µM] | SMILES | inhibitory activity against MMP-13 (in words) (recombinant human MMP-13) | inhibitory activity against MMP-1 (in words) (recombinant human MMP-1) | inhibitory activity against MMP-2 (in words) (MMP-2; discussion of Table 51)
0.0148 | 0.03 | 8 | – | COCC(O)(CS(=O)(=O)c1ccc(Oc2ccccc2)cc1)C(=O)NO (stereo not drawn) [Example 6, N,2-dihydroxy-2-(methoxymethyl)-3-[(4-phenoxyphenyl)sulfonyl]propanamide] | – | – | –
– | 0.2 | > 10 | – | COc1ccc(S(=O)(=O)CC(O)C(=O)NO)cc1 (stereo not drawn) [Example 8, N,2-dihydroxy-3-[(4-methoxyphenyl)sulfonyl]propanamide] | only slightly better | relatively inactive | –
0.0004 | 0.001 | 4 | 0.018 | O=C(NO)[C@@H](O)CS(=O)(=O)c1ccc(Oc2ccccc2)cc1 [Example 10, (R)—N,2-dihydroxy-3-[(4-phenoxyphenyl)sulfonyl]propanamide] | – | – | –
2.6 | 10 | > 10 | – | Cc1ccccc1NC(=O)Nc1ccc(S(=O)(=O)CC(C)(O)C(=O)NO)cc1 (stereo not drawn) [Example 19, N,2-dihydroxy-2-methyl-3-[[4-[[[(2-methylphenyl)amino]carbonyl]amino]phenyl]sulfonyl]propanamide] | – | – | –
< 0.0001 | < 0.0001 | > 10 | – | CCCCCCCOc1ccc(C(=O)Nc2ccc(S(=O)(=O)CC(C)(O)C(=O)NO)cc2)cc1 (stereo not drawn) [Example 24, 4-(heptyloxy)-N-[4-[[2-hydroxy-3-(hydroxyamino)-2-methyl-3-oxopropyl]sulfonyl]phenyl]benzamide] | greater than could be measured in the assay | lower than could be measured in the assay | greater than could be measured in the assay
0.0001 | 0.0012 | > 10 | – | CCCc1ccc(C(=O)Nc2ccc(S(=O)(=O)CC(C)(O)C(=O)NO)cc2)cc1 (stereo not drawn) [Example 26, N-[4-[[2-hydroxy-3-(hydroxyamino)-2-methyl-3-oxopropyl]-sulfonyl]phenyl]4-propylbenzamide] | – | – | –
0.01 | 0.666 | > 10 | – | COc1cccc(C(=O)Nc2ccc(S(=O)(=O)CC(C)(O)C(=O)NO)cc2)c1 (stereo not drawn) [Example 27] | – | – | –
< 0.0001 | 0.0008 | > 10 | – | CCCCc1ccc(C(=O)Nc2ccc(S(=O)(=O)CC(C)(O)C(=O)NO)cc2)cc1 (stereo not drawn) [Example 28, 4-butyl-N-[4-[[2-hydroxy-3-(hydroxyamino) -2-methyl-3-oxopropyl]-sulfonyl]phenyl]benzamide] | – | – | –
0.0016 | 0.08 | > 10 | – | CC(O)(CS(=O)(=O)c1ccc(NC(=O)c2ccc(F)c(F)c2)cc1)C(=O)NO (stereo not drawn) [Example 32, 3,4-difluoro-N-[4-[[2-hydroxy-3-(hydroxyamino)-2-methyl-3-oxopropyl]sulfonyl]phenyl]benzamide] | – | – | –
0.0327 | 1.6 | > 10 | – | CC(O)(CS(=O)(=O)c1ccc(NC(=O)c2cccc(NCCCCO)c2)cc1)C(=O)NO (stereo not drawn) [Example 34] | – | – | –

More lines, now with the values behind:

SMILES | IC50 (MMP-2) [µM] | IC50 (recombinant human MMP-13) [µM] | IC50 (recombinant human MMP-1) [µM] | IC50 (MMP-9) [µM] | inhibitory activity against MMP-13 (in words) (recombinant human MMP-13) | inhibitory activity against MMP-1 (in words) (recombinant human MMP-1) | inhibitory activity against MMP-2 (in words) (MMP-2; discussion of Table 51)
O=C(NO)[C@H](O)CS(=O)(=O)c1ccc(Oc2ccccc2)cc1 [Example 11, (S)—N,2-dihydroxy-3-[(4-phenoxyphenyl)sulfonyl]propanamide] | 0.007 | 0.005 | 7 | 0.066 | – | – | –
O=C(NO)C(O)CS(=O)(=O)c1ccc(Sc2ccccc2)cc1 (stereo not drawn) [Example 12, N,2-dihydroxy-3-[[4-(phenylthio)phenyl]sulfonyl]propanamide] | 0.002 | 0.0037 | > 10 | 0.175 | – | – | –
O=C(NO)C(O)(CO)CS(=O)(=O)c1ccc(Sc2ccccc2)cc1 (stereo not drawn) [Example 13] | 0.0023 | 0.005 | > 10 | 0.07 | – | – | –
CCCCCc1ccc(C(=O)Nc2ccc(S(=O)(=O)CC(C)(O)C(=O)NO)cc2)cc1 (stereo not drawn) [Example 14, N-[4-[[2-hydroxy-3-(hydroxyamino)-2-methyl-3-oxopropyl]sulfonyl]phenyl]pentylbenzamide] | < 0.0001 | 0.0005 | > 10 | – | – | – | –
CC(O)(CS(=O)(=O)c1ccc(NC(=O)Nc2ccccc2)cc1)C(=O)NO (stereo not drawn) [Example 15, N,2-dihydroxy-2-methyl-3-[[4-[((phenylamino)carbonyl)amino]phenyl]sulfonyl]propanamide] | 0.087 | 3.2 | > 10 | – | – | – | –
CC(C)CC(=O)Nc1ccc(S(=O)(=O)CC(C)(O)C(=O)NO)cc1 (stereo not drawn) [Example 17, N-[4-[[2-hydroxy-3-(hydroxyamino)-2-methyl-3-oxopropyl]sulfonyl]phenyl]-3-methylbutanamide] | 0.4 | 0.9 | > 10 | – | – | – | –
CC(O)(CS(=O)(=O)c1ccc(NC(=O)c2ccc(Cl)cc2)cc1)C(=O)NO (stereo not drawn) [Example 18] | 0.0005 | 0.013 | > 10 | – | – | – | –
Cc1cccc(NC(=O)Nc2ccc(S(=O)(=O)CC(C)(O)C(=O)NO)cc2)c1 (stereo not drawn) [Example 20, N,2-dihydroxy-2-methyl-3-[[4-[[[(3-methylphenyl)amino]carbonyl]amino]phenyl]sulfonyl]propanamide] | 0.3 | 6.6 | > 10 | – | – | – | –
Cc1ccc(NC(=O)Nc2ccc(S(=O)(=O)CC(C)(O)C(=O)NO)cc2)cc1 (stereo not drawn) [Example 21, N,2-dihydroxy-2-methyl-3-[[4-[[[(4-methylphenyl)amino]carbonyl]amino]phenyl]sulfonyl]propanamide] | 0.034 | 3.6 | > 10 | – | – | – | –
CC(O)(CS(=O)(=O)c1ccc(NC(=O)c2ccc(Cl)nc2)cc1)C(=O)NO (stereo not drawn) [Example 22, 6-chloro-N-(4-[[2-hydroxy-3-(hydroxyamino)-2-methyl-3-oxopropyl]sulfonyl]phenyl]-3-pyridinecarboxamide] | 0.0067 | 0.28 | > 10 | – | – | – | –
O=C(Nc1ccc(S(=O)(=O)CC(O)C(=O)NO)cc1)c1ccccc1 (stereo not drawn) [Example 23, N-[4-[[2-hydroxy-3-(hydroxyamino)-3-oxopropyl]sulfonyl]phenyl]benzamide] | 0.0028 | 0.22 | > 10 | 1.33 | – | – | –
CCCCOc1ccc(C(=O)Nc2ccc(S(=O)(=O)CC(C)(O)C(=O)NO)cc2)cc1 (stereo not drawn) [Example 25, 4-butoxy-N-[4-[[2-hydroxy-3-(hydroxyamino)-2-methyl-3-oxopropyl]sulfonyl]phenyl]benzamide] | 0.0002 | 0.0012 | > 10 | – | – | – | –
CC(O)(CS(=O)(=O)c1ccc(NC(=O)c2cccc(F)c2)cc1)C(=O)NO (stereo not drawn) [Example 29] | 0.0018 | 0.08 | > 10 | – | – | – | –
Cc1cccc(C(=O)Nc2ccc(S(=O)(=O)CC(C)(O)C(=O)NO)cc2)c1 (stereo not drawn) [Example 30, N-[4-[[2-hydroxy-3-(hydroxyamino)-2-methyl-3-oxopropyl]sulfonyl]phenyl]-3-methylbenzamide] | 0.02 | 0.316 | > 10 | – | – | – | –
CC(O)(CS(=O)(=O)c1ccc(NC(=O)c2cccc(Cl)c2)cc1)C(=O)NO (stereo not drawn) [Example 31, 3-chloro-N-[4-[[2-hydroxy-3-(hydroxyamino)-2-methyl-3-oxopropyl]sulfonyl]phenyl]benzamide] | 0.0372 | 0.6 | > 10 | – | – | – | –
CC(O)(CS(=O)(=O)c1ccc(NC(=O)c2cccc([N+](=O)[O-])c2)cc1)C(=O)NO (stereo not drawn) [Example 33] | 0.05 | 1.6 | > 10 | – | – | – | –
CC(O)(CS(=O)(=O)c1ccc(NC(=O)c2cccc(N)c2)cc1)C(=O)NO (stereo not drawn) [Example 35, 3-amino-N-[4-[[2-hydroxy-3-(hydroxyamino)-2-methyl-3-oxopropyl]-sulfonyl]phenyl]benzamide] | 0.0067 | 0.29 | > 10 | – | – | – | –
